Test [1] deals with T1, KRAS G12D (Homo sapiens, UniProt P01116, G12D). Briefly: SOS-catalyzed nucleotide exchange assay, KRAS G12D (Procedure A). It is filed as biochemical. The note with it: guanine nucleotide exchange (GNE). Summed up:
(§1)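 Compounds in 10-point 3-fold series sat 60 min with biotin-KRAS/Bodipy-GDP/Tb-streptavidin complex, then human SOS and 3 mM GTP were added. G13D: 1.25 nM KRAS, no SOS, 30 min. WT and G12D: 1 nM with 40 nM SOS, 60 min. G12C (C51S/C80L/C118S): 3 nM/40 nM, 60 min. Curves fitted from normalised TR-FRET 520/495 ratio.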
Target sequence in this assay (P01116 with tags, fused parts or gaps isoform P01116-2 G12D): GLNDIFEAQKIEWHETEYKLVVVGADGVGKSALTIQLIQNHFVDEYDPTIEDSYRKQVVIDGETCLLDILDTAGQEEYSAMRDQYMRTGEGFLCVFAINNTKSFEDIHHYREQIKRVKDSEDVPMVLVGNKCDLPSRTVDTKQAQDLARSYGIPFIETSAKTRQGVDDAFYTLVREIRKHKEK

Test [2] deals with KRAS G12C (Homo sapiens, UniProt P01116, C118S/C51S/C80L/G12C). In words: SOS-catalyzed nucleotide exchange assay, KRAS G12C (Procedure A). The class given is biochemical. The note with it: GNE. Put shortly: as §1
Chain of KRAS G12C (Homo sapiens, UniProt P01116, C118S/C51S/C80L/G12C) (P01116 with tags, fused parts or gaps isoform P01116-2 G12C/C51S/C80L/C118S): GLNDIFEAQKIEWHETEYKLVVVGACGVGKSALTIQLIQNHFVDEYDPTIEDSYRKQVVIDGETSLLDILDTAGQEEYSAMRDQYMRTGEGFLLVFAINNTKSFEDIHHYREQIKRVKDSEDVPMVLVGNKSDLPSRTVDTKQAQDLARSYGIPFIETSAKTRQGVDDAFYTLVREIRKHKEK
In another test the target is T2, AsPC-1 cells (Homo sapiens, UniProt P01116, G12D).
T2 construct: p-ERK/total ERK AlphaSureFire read-out
T2 sequence (P01116 1-188 isoform P01116-2 G12D): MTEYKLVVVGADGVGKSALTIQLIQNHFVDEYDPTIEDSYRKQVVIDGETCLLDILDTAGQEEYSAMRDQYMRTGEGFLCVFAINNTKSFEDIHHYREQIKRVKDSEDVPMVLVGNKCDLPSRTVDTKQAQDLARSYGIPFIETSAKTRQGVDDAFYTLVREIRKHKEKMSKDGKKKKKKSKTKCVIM
Briefly: Cellular phospho-ERK assay, AsPC-1 cells (KRAS G12D). The class given is cell-based. The note with it: 2 hours, read-out: AsPC1 pERK IC50. Put shortly:
(§2)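 Compound was titrated 10-point in 3-fold steps (top 30 μM) on KRAS G12D homozygous pancreatic lines PANC08.13 and AsPC-1 for 2 h at 37 °C. The p-ERK/total ERK ratio was measured by multiplex AlphaLISA SureFire and fitted with a 4-parameter logistic model to give IC50.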

For a further test, the target named is T3, PANC08.13 cells (Homo sapiens, UniProt P01116, G12D).
T3 construct: p-ERK/total ERK AlphaSureFire read-out
T3 sequence (P01116 1-188 isoform P01116-2 G12D): as above
Briefly: Cellular phospho-ERK assay, PANC08.13 cells (KRAS G12D). It is filed as cell-based. The note with it: 2 hours, read-out: PANCO 813 pERK IC50. Put shortly: as §2

For the next test, the target named is KRAS G13D (Homo sapiens, UniProt P01116, G13D). Briefly: SOS-catalyzed nucleotide exchange assay, KRAS G13D (Procedure A). The class given is biochemical. The note with it: GNE. Put shortly:
as §1

Test [3] addresses T4, KRAS G12V (Homo sapiens, UniProt P01116, G12V). In words: SOS-catalyzed nucleotide exchange assay, KRAS G12V (Procedure A). The note with it: GNE. It is filed as biochemical. Put shortly:
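Biotinylated KRAS G12V was loaded with Bodipy-GDP alongside Terbium-streptavidin to form a TR-FRET complex, which was preincubated with compounds for 60 minutes in 384-well plates. Human SOS protein and unlabeled GTP were then added for 90 minutes, giving final concentrations of 1.25 nM KRAS-G12V, 160 nM SOS and 3 mM GTP. The 520/495 nm emission ratio was read on an Envision.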
Target sequence in this assay (P01116 with tags, fused parts or gaps isoform P01116-2 G12V): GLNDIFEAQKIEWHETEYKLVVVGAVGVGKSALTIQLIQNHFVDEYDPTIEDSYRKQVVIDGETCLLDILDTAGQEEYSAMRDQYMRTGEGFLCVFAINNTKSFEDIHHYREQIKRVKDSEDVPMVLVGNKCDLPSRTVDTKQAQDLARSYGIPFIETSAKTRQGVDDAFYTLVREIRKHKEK

For test [4], the target named is T5, KRAS WT (Homo sapiens, UniProt P01116). In words: SOS-catalyzed nucleotide exchange assay, KRAS WT (Procedure A). The class given is biochemical. The note with it: GNE. Put shortly:
as §1
Target sequence in this assay (P01116 with tags, fused parts or gaps isoform P01116-2): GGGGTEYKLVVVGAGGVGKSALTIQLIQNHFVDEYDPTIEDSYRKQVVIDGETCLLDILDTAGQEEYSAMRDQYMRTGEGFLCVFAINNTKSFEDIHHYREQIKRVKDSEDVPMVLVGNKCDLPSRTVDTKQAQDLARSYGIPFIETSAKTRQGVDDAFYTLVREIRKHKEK

A further test concerns the target NRAS (Homo sapiens, UniProt P01111). In words: SOS-catalyzed nucleotide exchange assay, NRAS (Procedure A). It is filed as biochemical. The note with it: GNE. Put shortly:
(§3)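 60 min cpd preinc. w/ RAS–Bodipy-GDP–Tb-SA complex; + hSOS/GTP (3 mM final), RT. G12C 3 nM RAS/40 nM SOS; WT, G12D 1 nM/40 nM; 60 min rxn. G13D 1.25 nM, no SOS, 30 min rxn. HEPES pH 7.5, 10 mM MgCl2. Ratio 520/495, norm. to DMSO/max-inhibitor ctrls.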

The next test deals with HRAS (Homo sapiens, UniProt P01112). In words: SOS-catalyzed nucleotide exchange assay, HRAS (Procedure A). The note with it: GNE. The class given is biochemical. Put shortly: as §3
Chain of HRAS (P01112 with tags, fused parts or gaps): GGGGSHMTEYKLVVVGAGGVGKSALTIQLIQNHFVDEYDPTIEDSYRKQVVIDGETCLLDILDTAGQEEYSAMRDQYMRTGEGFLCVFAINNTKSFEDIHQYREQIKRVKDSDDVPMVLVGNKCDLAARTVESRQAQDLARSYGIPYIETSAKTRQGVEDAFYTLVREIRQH
The target of test [5] is T5, KRAS WT. In words: SOS-catalyzed nucleotide exchange assay, KRAS WT (Procedure B; Example 14). The note with it: 1 hour compound incubation, SOS1 and GMPPNP 30 minutes, read-out: KRAS WT GNE IC50. On the set-up: KRAS WT (amino acids 1-169, N-terminal His-tag); made in house; host or cells: E. coli. It is filed as biochemical. The procedure:
(§4) Procedure for SOS-Catalyzed Nucleotide Exchange Assay for KRAS-G12C/D/V/WT (Procedure B)
(§5) Recombinant KRAS G12C (amino acids 1-169, SEQ ID NO:9), KRAS G12D (amino acids 1-169, SEQ ID NO:10), KRAS G12V (amino acids 1-169, SEQ ID NO:11), KRAS WT (amino acids 1-169, SEQ ID NO:12) and SOS1 (amino acids 564-1049, SEQ ID NO:13) proteins were expressed in E. coli and purified by affinity chromatography. To prepare each BODIPY™ FL GDP-bound KRAS protein, 50 μM KRAS proteins were incubated with 0.5 mM BODIPY™ FL GDP (Invitrogen, G22360) in a loading buffer (20 mM Tris-HCl pH 7.5, 50 mM NaCl, 1 mM DTT and 2.5 mM EDTA) for 1 hour on ice. After the incubation, MgCl2 was added to a final concentration of 10 mM, followed by an incubation at room temperature for 30 minutes. The mixtures were allowed to pass through a NAP-5 column to remove free nucleotides and purified BODIPY™ FL GDP-bound KRAS G12C, G12D, G12V and WT proteins were used for compound evaluation.
(§6) The inhibitory activity of compounds on recombinant KRAS is measured by the displacement of the bound BODIPY™ GDP. […] Displacement of BODIPY™ FL GDP by Guanosine-5′-[(β,γ)-imido]triphosphate, Tetralithium salt (GMPPNP) was measured by calculating the ratio of fluorescence intensities of BODIPY™ FL before and after the exchange reaction. […] Dose response curves were analyzed using a 4-parameter logistic model to calculate IC50 values. […]
Target sequence in this assay (P01116 with tags, fused parts or gaps isoform P01116-2): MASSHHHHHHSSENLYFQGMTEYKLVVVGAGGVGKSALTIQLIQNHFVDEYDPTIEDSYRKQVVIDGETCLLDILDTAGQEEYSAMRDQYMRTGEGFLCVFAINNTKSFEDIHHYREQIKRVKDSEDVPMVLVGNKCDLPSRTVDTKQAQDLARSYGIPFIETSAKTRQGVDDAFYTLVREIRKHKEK

The target of test [6] is T6, KRAS G12C (Homo sapiens, UniProt P01116, G12C).
T6 construct: KRAS G12C (amino acids 1-169, N-terminal His-tag); made in house; host or cells: E. coli
T6 sequence (P01116 with tags, fused parts or gaps isoform P01116-2 G12C): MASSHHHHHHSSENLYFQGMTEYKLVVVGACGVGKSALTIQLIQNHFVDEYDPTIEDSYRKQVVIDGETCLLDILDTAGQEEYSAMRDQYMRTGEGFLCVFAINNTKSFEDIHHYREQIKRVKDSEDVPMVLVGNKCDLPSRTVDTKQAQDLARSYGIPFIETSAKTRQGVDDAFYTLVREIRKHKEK
In words: SOS-catalyzed nucleotide exchange assay, KRAS G12C (Procedure B; Example 14). The class given is biochemical. The note with it: 1 hour compound incubation, SOS1 and GMPPNP 30 minutes, read-out: KRAS G12C GNE IC50. The protocol: as §4, §5, §6

Test [7] addresses T4, KRAS G12V. In words: SOS-catalyzed nucleotide exchange assay, KRAS G12V (Procedure B; Example 14). Also noted: KRAS G12V (amino acids 1-169, N-terminal His-tag); made in house; host or cells: E. coli. It is filed as biochemical. The note with it: 1 hour compound incubation, SOS1 and GMPPNP 30 minutes, read-out: KRAS G12V GNE IC50. The protocol: as §4, §5, §6
Target sequence in this assay (P01116 with tags, fused parts or gaps isoform P01116-2 G12V): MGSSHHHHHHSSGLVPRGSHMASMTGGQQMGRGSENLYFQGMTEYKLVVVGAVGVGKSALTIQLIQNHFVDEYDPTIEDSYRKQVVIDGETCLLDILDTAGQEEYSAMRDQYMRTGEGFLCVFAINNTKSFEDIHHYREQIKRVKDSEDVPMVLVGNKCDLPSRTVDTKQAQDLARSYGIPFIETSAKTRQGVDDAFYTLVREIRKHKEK
Test [8] deals with T1, KRAS G12D. Briefly: SOS-catalyzed nucleotide exchange assay, KRAS G12D (Procedure B; Example 14). It is filed as biochemical. Also noted: KRAS G12D (amino acids 1-169, N-terminal His-tag); made in house; host or cells: E. coli. The note with it: 1 hour compound incubation, SOS1 and GMPPNP 30 minutes, read-out: KRAS G12D GNE IC50. The protocol:
as §4, §5, §6
Target sequence in this assay (P01116 with tags, fused parts or gaps isoform P01116-2 G12D): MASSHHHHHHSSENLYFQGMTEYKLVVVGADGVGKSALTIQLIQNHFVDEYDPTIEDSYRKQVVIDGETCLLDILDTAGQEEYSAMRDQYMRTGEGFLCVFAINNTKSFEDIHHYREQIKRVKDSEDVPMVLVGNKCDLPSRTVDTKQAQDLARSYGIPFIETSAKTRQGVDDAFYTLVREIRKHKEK

Bounds are passed on as bounds.

Chain of KRAS G13D (P01116 with tags, fused parts or gaps isoform P01116-2 G13D): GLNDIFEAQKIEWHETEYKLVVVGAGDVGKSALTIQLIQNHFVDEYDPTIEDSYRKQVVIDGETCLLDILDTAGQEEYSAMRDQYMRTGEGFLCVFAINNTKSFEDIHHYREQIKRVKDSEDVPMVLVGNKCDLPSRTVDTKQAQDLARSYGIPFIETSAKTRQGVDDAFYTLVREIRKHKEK
Chain of NRAS (P01111 with tags, fused parts or gaps): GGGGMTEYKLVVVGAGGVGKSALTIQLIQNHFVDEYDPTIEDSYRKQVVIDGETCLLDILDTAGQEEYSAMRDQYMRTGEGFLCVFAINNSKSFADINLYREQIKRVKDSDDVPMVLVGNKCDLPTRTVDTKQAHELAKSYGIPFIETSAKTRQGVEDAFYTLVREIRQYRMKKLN

A word on the IC50: it is the midpoint of a concentration-inhibition curve. Take `Cc1cc2[nH]ncc2c(-c2nccc3c4c(N5C[C@H]6CC[C@@H](C5)N6)nc(OC[C@@]56CCCN5C[C@H](F)C6)nc4n(C)c23)c1C(F)F` (single isomer, unassigned) [Ex-3]: the IC50 on KRAS G12D [1] was found to be 97.5 nM; on KRAS G12C [2], 919 nM; on AsPC-1 cells it was 965 nM; on PANC08.13 cells, 244 nM; at KRAS G13D, 3320 nM; against KRAS G12V [3], 5140 nM. Further, the results for the IC50 against KRAS WT [4], on NRAS and on HRAS were 9310 nM, more than 11100 nM and more than 11100 nM, respectively.
Turning to `Cc1cc2[nH]nc(C#N)c2c(-c2nccc3c4c(N5C[C@H]6CC[C@@H](C5)N6)nc(OC[C@@]56CCCN5C[C@H](F)C6)nc4n(C)c23)c1C(F)(F)F` (single isomer, unassigned) [Ex-2], the 50% inhibitory concentration (IC50) against KRAS G12D [1] is 43.6 nM; at KRAS G12C [2], more than 11100 nM; at AsPC-1 cells, 15100 nM; on PANC08.13 cells it was 1630 nM; at KRAS G13D, 2360 nM; against KRAS G12V [3] it was more than 11100 nM. For the same compound, the concentration for half-maximal inhibition (IC50) against KRAS WT [4], at NRAS and against HRAS was more than 11100 nM throughout.
On to `C#Cc1c(F)ccc2cc(O)cc(-c3nccc4c5c(N6C[C@H]7CC[C@@H](C6)N7)nc(OC[C@@]67CCCN6C[C@H](F)C7)nc5n(C)c34)c12` [Ex-8, 4-(4-((1R,5S)-3,8-diazabicyclo[3.2.1]octan-3-yl)-2-(((2R,7aS)-2-fluorotetrahydro-1H-pyrrolizin-7a(5H)-yl)methoxy)-9-methyl-9H-pyrido[4′,3′:4,5]pyrrolo[2,3-d]pyrimidin-8-yl)-5-ethynyl-6-fluoronaphthalen-2-ol], for which the half-maximal inhibitory concentration (IC50) against KRAS G12D [1] stood at 1.81 nM; at KRAS G12C [2] it was 25.2 nM; at AsPC-1 cells, 138 nM; at PANC08.13 cells, 63.8 nM; against KRAS G13D it was 17.8 nM; at KRAS G12V [3], 62.6 nM. The figures for the half-inhibitory concentration (IC50) on KRAS WT [4], at NRAS and on HRAS were 48.1 nM, more than 11100 nM and more than 11100 nM, respectively.
On to `FC(F)c1ccc2[nH]ncc2c1-c1nccc2c1sc1nc(OC[C@@]34CCCN3C[C@H](F)C4)nc(N3C[C@H]4CC[C@@H](C3)N4)c12` [Ex-14, 4-((1R,5S)-3,8-diazabicyclo[3.2.1]octan-3-yl)-8-(5-(difluoromethyl)-1H-indazol-4-yl)-2-(((2R,7aS)-2-fluorotetrahydro-1H-pyrrolizin-7a(5H)-yl)methoxy)pyrido[4′,3′:4,5]thieno [2,3-d]pyrimidine], for which the IC50 at KRAS WT [5] was more than 5000 nM; on KRAS G12C [6] it was more than 5000 nM; at KRAS G12V [7], more than 5000 nM; on KRAS G12D [8], 110 nM.
Regarding `Cc1cc2[nH]ncc2c(-c2nccc3c4c(N5C[C@H]6CC[C@@H](C5)N6)nc(OC[C@@]56CCCN5C[C@H](F)C6)nc4n(C)c23)c1C(F)(F)F` (single isomer, unassigned) [Ex-1], the IC50 against KRAS G12D [1] turned out to be 14.3 nM; at KRAS G12C [2], 652 nM; on AsPC-1 cells, 455 nM; at PANC08.13 cells, 139 nM; against KRAS G13D, 1640 nM; at KRAS G12V [3], 3560 nM. The concentration for half-maximal inhibition (IC50) is 6500 nM at KRAS WT [4], more than 11100 nM on NRAS and more than 11100 nM against HRAS.
Take `FC(F)c1c(Cl)cc2[nH]ncc2c1-c1nccc2c1sc1nc(OC[C@@]34CCCN3C[C@H](F)C4)nc(N3C[C@H]4CC[C@@H](C3)N4)c12` [Ex-13, 4-((1R,5S)-3,8-diazabicyclo[3.2.1]octan-3-yl)-8-(6-chloro-5-(difluoromethyl)-1H-indazol-4-yl)-2-(((2R,7aS)-2-fluorotetrahydro-1H-pyrrolizin-7a(5H)-yl)methoxy)pyrido[4′,3′:4,5]thieno [2,3-d]pyrimidine]: the half-maximal inhibitory concentration (IC50) against KRAS G12D [1] worked out at 13.7 nM; on KRAS G12C [2] it was 665 nM; at AsPC-1 cells, 582 nM; on PANC08.13 cells, 220 nM; against KRAS G13D it was 1830 nM; on KRAS G12V [3] it was 8350 nM. The values for the IC50 against KRAS WT [4], at NRAS and at HRAS were 9560 nM, more than 11100 nM and more than 11100 nM, respectively.

For the origin of these results see US20260347372A1, “SMALL MOLECULE INHIBITORS OF KRAS G12D MUTANT” (MERCK SHARP & DOHME LLC, priority 2023, published 2026).
